Test results: US11542288B2, “Antiviral compounds” (priority 2020, dated 2023)
Like-named read-outs stand apart in the source and are kept apart here.

Assays:
HIV-1 protease I84V = target: T1, HIV-1 protease I84V (Human immunodeficiency virus type 1 group M subtype B, UniProt P12497, I572V/Q495K); experiment: HIV enzyme inhibition assay (Ki), I84V variant; assay type: biochemical; settings: drug-resistant protease variant I84V
T1 construct: onto NL4-3 wild-type protease on a pET11a plasmid; made in house

HIV-1 protease 11 Mutant = target: T2, HIV-1 protease 11 Mutant (Human immunodeficiency virus type 1 group M subtype B, UniProt P12497); experiment: HIV enzyme inhibition assay (Ki), 11 Mutant variant; assay type: biochemical; settings: drug-resistant protease variant 11 Mutant
T2 construct: onto NL4-3 wild-type protease on a pET11a plasmid with codon optimization for protein expression in Escherichia coli; A Q7K mutation was included to prevent autoproteolysis

HIV-1 protease KY24 = HIV-1 protease KY24 (Human immunodeficiency virus type 1, UniProt P12497); settings: read-out: Ki KY24; drug-resistant protease variant KY24
wild-type HIV-1 = experiment: HIV antiviral assay (293T / TZM-BL luciferase); assay type: cell-based; settings: read-out: Antiviral WT EC50
HIV-1 protease I50V/A71V = target: T3, HIV-1 protease I50V/A71V (Human immunodeficiency virus type 1 group M subtype B, UniProt P12497, A559V/I538V/Q495K); experiment: HIV enzyme inhibition assay (Ki), I50V/A71V variant; assay type: biochemical; settings: drug-resistant protease variant I50V/A71V
T3 construct: onto NL4-3 wild-type protease on a pET11a plasmid; made in house

HIV-1 protease 8 Mutant = target: T4, HIV-1 protease 8 Mutant (Human immunodeficiency virus type 1 group M subtype B, UniProt P12497); experiment: HIV enzyme inhibition assay (Ki), 8 Mutant variant; assay type: biochemical; settings: drug-resistant protease variant 8 Mutant
T4 construct: onto NL4-3 wild-type protease on a pET11a plasmid with codon optimization for protein expression in Escherichia coli; A Q7K mutation was included to prevent autoproteolysis

HIV-1 protease 10 Mutant = target: T5, HIV-1 protease 10 Mutant (Human immunodeficiency virus type 1 group M subtype B, UniProt P12497); experiment: HIV enzyme inhibition assay (Ki), 10 Mutant variant; assay type: biochemical; settings: drug-resistant protease variant 10 Mutant
T5 construct: onto NL4-3 wild-type protease on a pET11a plasmid with codon optimization for protein expression in Escherichia coli; A Q7K mutation was included to prevent autoproteolysis

HTLV-1 protease [1] = target: T6, HTLV-1 protease (Human T-cell leukemia virus type I, UniProt Q82134, L40I); settings: read-out: Ki against HTLV-1 protease; 1 μM protein, MA/CA FRET substrate
T6 sequence (Q82134 entry or part of it L40I): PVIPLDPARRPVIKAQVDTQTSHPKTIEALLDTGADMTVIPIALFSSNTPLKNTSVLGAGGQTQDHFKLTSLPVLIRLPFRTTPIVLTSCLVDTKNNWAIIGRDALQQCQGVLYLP

HTLV-1 protease [2] = target: T6, HTLV-1 protease; experiment: biochemical

Compound | Ki (HIV-1 protease I84V) [nM] | Ki (HIV-1 protease 11 Mutant) [nM] | Ki (HIV-1 protease KY24) [nM] | EC50 (wild-type HIV-1) [nM] | Ki (HIV-1 protease I50V/A71V) [nM] | Ki (HIV-1 protease 8 Mutant) [nM] | Ki (HIV-1 protease 10 Mutant) [nM] | Ki (HTLV-1 protease [1]) [nM] | Ki (HTLV-1 protease [2]) [nM]
CCOP(=O)(COc1ccc(C[C@H](NC(=O)O[C@H]2CO[C@H]3OCC[C@H]32)[C@H](O)CN(CC(CC)CC)S(=O)(=O)c2ccc3c(c2)OCO3)cc1)OCC [Example 4, (3R,3aS,6aR)-hexahydrofuro[2,3-b]furan-3-yl ((2S,3R)-1-(4-((diethoxyphosphoryl)methoxy)phenyl)-4-(N-(2-ethylbutyl)benzo[d][1,3]dioxole-5-sulfonamido)-3-hydroxybutan-2-yl)carbamate] | < 0.005 | 6.9 ± 0.5 | 0.08 ± 0.03 | 3.11 | < 0.005 | 0.37 ± 0.03 | 1.6 ± 0.06 |  | 
CCOP(=O)(COc1ccc(C[C@H](NC(=O)O[C@H]2CO[C@H]3OCC[C@H]32)[C@H](O)CN(CC(CC)CC)S(=O)(=O)c2ccc(CO)cc2)cc1)OCC [Example 13, (3R,3aS,6aR)-hexahydrofuro[2,3-b]furan-3-yl ((2S,3R)-1-(4-((diethoxyphosphoryl)methoxy)phenyl)-4-((N-(2-ethylbutyl)-4-(hydroxymethyl)phenyl)sulfonamido)-3-hydroxybutan-2-yl)carbamate] | < 0.005 | 81.2 ± 10.8 | 0.6 ± 0.1 | 17 | < 0.005 | 2.2 ± 0.4 | 32.1 ± 4.3 |  | 
CCOP(=O)(COc1ccc(C[C@H](NC(=O)O[C@H]2CO[C@H]3OCC[C@H]32)[C@H](O)CN(C[C@@H](C)CC)S(=O)(=O)c2ccc(N)cc2)cc1)OCC [Example 5, (3R,3aS,6aR)-hexahydrofuro[2,3-b]furan-3-yl ((2S,3R)-4-((4-amino-N—((S)-2-methylbutyl)phenyl)sulfonamido)-1-(4-((diethoxyphosphoryl)methoxy)phenyl)-3-hydroxybutan-2-yl)carbamate] | < 0.005 | 259 ± 17 | 2.31 ± 0.09 | 22.9 | < 0.005 | 13.3 ± 3.5 | 146 ± 10 |  | 
CCOP(=O)(COc1ccc(C[C@H](NC(=O)O[C@H]2CO[C@H]3OCC[C@H]32)[C@H](O)CN(CC(CC)CC)S(=O)(=O)c2ccc3ncsc3c2)cc1)OCC [Example 12, (3R,3aS,6aR)-hexahydrofuro[2,3-b]furan-3-yl ((2S,3R)-1-(4-((diethoxyphosphoryl)methoxy)phenyl)-4-(N-(2-ethylbutyl)benzo[d]thiazole-6-sulfonamido)-3-hydroxybutan-2-yl)carbamate] | < 0.005 |  |  | 10.7 | < 0.005 | 0.25 ± 0.08 | 0.24 ± 0.09 |  | 
CCOP(=O)(COc1ccc(C[C@H](NC(=O)O[C@H]2CO[C@H]3OCC[C@H]32)[C@H](O)CN(C[C@@H](C)CC)S(=O)(=O)c2ccc3ncsc3c2)cc1)OCC [Example 11, (3R,3aS,6aR)-hexahydrofuro[2,3-b]furan-3-yl ((2S,3R)-1-(4-((diethoxyphosphoryl)methoxy)phenyl)-3-hydroxy-4-(N—((S)-2-methylbutyl)benzo[d]thiazole-6-sulfonamido)butan-2-yl)carbamate] | < 0.005 | 9.03 ± 4.21 | 0.09 ± 0.01 | 9.93 | < 0.005 | 1.8 ± 0.5 | 1.2 ± 0.4 |  | 
CCOP(=O)(COc1ccc(C[C@H](NC(=O)O[C@H]2CO[C@H]3OCC[C@H]32)[C@H](O)CN(CC(C)C)S(=O)(=O)c2ccc3ncsc3c2)cc1)OCC [Example 10, (3R,3aS,6aR)-hexahydrofuro[2,3-b]furan-3-yl ((2S,3R)-1-(4-((diethoxyphosphoryl)methoxy)phenyl)-3-hydroxy-4-(N-isobutylbenzo [d]thiazole-6-sulfonamido)butan-2-yl)carbamate] | < 0.005 | 15 ± 3.5 | 0.23 ± 0.02 | 10.4 | < 0.005 | 0.93 ± 0.2 | 1.9 ± 0.3 |  | 
CCOP(=O)(COc1ccc(C[C@H](NC(=O)O[C@H]2CO[C@H]3OCC[C@H]32)[C@H](O)CN(C[C@@H](C)CC)S(=O)(=O)c2ccc(CO)cc2)cc1)OCC [Example 6, (3R,3aS,6aR)-hexahydrofuro[2,3-b]furan-3-yl ((2S,3R)-1-(4-((diethoxyphosphoryl)methoxy)phenyl)-3-hydroxy-4-((4-(hydroxymethyl)-N—((S)-2-methylbutyl)phenyl)sulfonamido)butan-2-yl)carbamate] | < 0.005 | 103 ± 3 | 1.89 ± 0.17 | 27.3 | < 0.005 | 4.98 ± 0.4 | 52.9 ± 4.2 |  | 
CCOP(=O)(COc1ccc(C[C@H](NC(=O)O[C@H]2CO[C@H]3OCC[C@H]32)[C@H](O)CN(C[C@@H](C)CC)S(=O)(=O)c2ccc(OC)cc2)cc1)OCC [Example 3, (3R,3aS,6aR)-hexahydrofuro [2,3-b]furan-3-yl ((2S,3R)-1-(4-((diethoxyphosphoryl)methoxy)phenyl)-3-hydroxy-4-((4-methoxy-N—((S)-2-methylbutyl)phenyl)sulfonamido)butan-2-yl)carbamate] | < 0.005 | 10.5 ± 0.9 | 0.16 ± 0.02 | 7.8 | < 0.005 | 0.78 ± 0.07 | 3.7 ± 0.3 |  | 
CC(C)(C)NC(=O)[C@@H]1CN(Cc2cccnc2)CCN1C[C@@H](O)C[C@@H](Cc1ccccc1)C(=O)N[C@H]1c2ccccc2C[C@H]1O [IDV, indinavir, reference compound] |  |  |  |  |  |  |  | 62700 | 60000
CCOP(=O)(COc1ccc(C[C@H](NC(=O)O[C@H]2CO[C@H]3OCC[C@H]32)[C@H](O)CN(CC(C)C)S(=O)(=O)c2ccc3c(c2)OCO3)cc1)OCC [Example 9, (3R,3aS,6aR)-hexahydrofuro[2,3-b]furan-3-yl ((2S,3R)-1-(4-((diethoxyphosphoryl)methoxy)phenyl)-3-hydroxy-4-(N-isobutylbenzo[d][1,3]dioxole-5-sulfonamido)butan-2-yl)carbamate] | < 0.005 | 63.5 ± 15.2 | 0.36 ± 0.05 | 5.67 | < 0.005 | 2.2 ± 0.5 | 4.5 ± 0.8 |  | 
CCOP(=O)(COc1ccc(C[C@H](NC(=O)O[C@H]2CO[C@H]3OCC[C@H]32)[C@H](O)CN(CC(CC)CC)S(=O)(=O)c2ccc(OC)cc2)cc1)OCC [Example 8, (3R,3aS,6aR)-hexahydrofuro[2,3-b]furan-3-yl ((2S,3R)-1-(4-((diethoxyphosphoryl)methoxy)phenyl)-4-((N-(2-ethylbutyl)-4-methoxyphenyl)sulfonamido)-3-hydroxybutan-2-yl)carbamate] | < 0.005 | 2.2 ± 0.2 | 0.16 ± 0.04 | 5.15 | < 0.005 | 0.77 ± 0.06 | 1.26 ± 0.08 |  | 
